Data from patent EP3636255A1 (priority 2018, dated 2020).
Read-outs that look alike come from different tables or passages of the source.

What was measured:
[1] = system: CerS3 cells lacking the indicated genes; assay: Yeast growth assay of CerS3 cells lacking genes identified as hypersensitive by SATAY; settings: 2.5 µM; 48 h at 30°C
anthrax toxin = assay type: cell-based, human; settings: RPE1 cells, 1 µM overnight
[2] = system: Vesicular Stomatitis Virus (VSV); assay type: cell-based
yeast cells = assay: Yeast growth assay (ten-fold serial dilution spotting) of WT yeast with empty vector or expressing mammalian ceramide synthases; settings: 48 h at 30°C

SMILES | toxicity (cell number by DAPI nuclei count) (HeLaMZ cells; 0.2-2 µM) | sensitivity of the mutants (colony size and density) [1] | LF activity (anthrax toxin; 500 ng/ml PA83 and 50 ng/ml LF) | PA processing (PA83 to PA63, heptamer formation) (anthrax toxin; 500 ng/ml PA83 and 50 ng/ml LF) | MEK1(N) cleavage (anthrax toxin; control cleaved within 90 to 120 min) | inhibition of viral infection, concentration dependence [2] | viral infection (GFP-positive cells) [2] | reduction of viral infectivity ([2]; 1 µM) | sensitivity (colony size and density) (yeast cells; WT+CerS1, 5 to 20 µM) | sensitivity (colony size and density) (yeast cells; WT+CerS2, 5 to 20 µM) | sensitivity (colony size and density) (yeast cells; WT+CerS3, already at 5 µM) | sensitivity (colony size and density) (yeast cells; WT+CerS4, 5 to 20 µM) | sensitivity (colony size and density) (yeast cells; WT+CerS5, 10 µM) | sensitivity (colony size and density) (yeast cells; WT+CerS5, 20 µM) | sensitivity (colony size and density) (yeast cells; WT+CerS6, 10 µM) | sensitivity (colony size and density) (yeast cells; WT+CerS6, 20 µM) | sensitivity (colony size and density) (yeast cells; WT+EV (empty vector), 5 to 20 µM) | cellular toxicity (RPE1 cells) | toxicity (cell count by DAPI-based nuclei count) (HeLaMZ cells) | toxicity (cell number by DAPI nuclei count) (HeLaMZ cells; at 1µM)
C#CCCCCCCCCCCCCCC(O)C(C)N (centres unmarked) [Formula 2, 2-aminooctadec-17-yn-3-ol] | very little toxicity |  |  |  |  |  |  |  |  |  |  |  |  |  |  |  |  |  |  | 
CCCCCCCCCCCCCCCC(O)C(C)N (centres unmarked) [Formula 1, 2-aminooctadecan-3-ol] |  | slightly more sensitive | prevented | unaffected | stabilized | Concentration dependent inhibition | reduced viral infection | substantial | insensitive | insensitive | highly sensitive | insensitive | mildly sensitive | highly sensitive | mildly sensitive | highly sensitive | insensitive | not toxic | not toxic | starts to show some toxicity
